Broadly, the IC50 is the concentration at which inhibition is half-maximal.

The target in this test is Human immunodeficiency virus type 1 protease (Human immunodeficiency virus 1, UniProt Q72874). Description: Concentration required to inhibit HIV-1 protease activity calculated from plots of % inhibition vs inhibitor concentration.
In the case of `CC[C@H](C)[C@H](NC(=O)C[C@H](O)[C@H](CC1CCCCC1)NC(=O)CC1C=CCN2C(=O)CCC(CNCc3ccccc3)C(=O)N12)C(=O)N[C@@H](Cc1ccccc1)C(=O)O` (stereo not given in full), the IC50 was 360 µM.

Turning to `CCC(C)[C@H](NC(=O)C[C@H](O)[C@H](CC1CCCCC1)NC(=O)CC1CCCN2C(=O)CCC(CN)C(=O)N12)C(=O)N[C@@H](Cc1ccccc1)C(N)=O` (stereo not given in full), the IC50 was 0.026 µM.

In the case of `CCC(C)[C@H](NC(=O)C[C@H](O)[C@H](Cc1ccccc1)NC(=O)CC1C=CCN2C(=O)CCC(CNCc3ccccc3)C(=O)N12)C(=O)N[C@@H](Cc1ccccc1)C(=O)OC` (stereo not given in full), the IC50 is 350 µM.

Turning to `CC[C@H](C)[C@H](NC(=O)C[C@H](O)[C@H](CC(C)C)NC(=O)CC1C=CCN2C(=O)CCC(CNCc3ccccc3)C(=O)N12)C(=O)N[C@@H](Cc1ccccc1)C(=O)OC` (stereo not given in full), the IC50 was 140 µM.

Take `CCC(C)[C@H](NC(=O)C[C@H](O)[C@H](CC(C)C)NC(=O)CC1C=CCN2C(=O)CCC(CNCc3ccccc3)C(=O)N12)C(=O)N[C@@H](Cc1ccccc1)C(N)=O` (stereo not given in full): the IC50 was 21 µM.

These data come from ChEMBL document CHEMBL1125224, “Examination of HIV-1 protease secondary structure specificity using conformationally constrained inhibitors” (J Med Chem, 1991).
